Experimental findings from patent US10265298B2, “Method of increasing the bioavailability of silybin” (Macau University of Science and Technology, priority 2017, dated 2019) are described below.

For data set [1], the system named is MCD diet-induced NASH. Description: MCD diet-induced nonalcoholic steatohepatitis (NASH) mouse model. In kind it is in vivo. An excerpt:
Male wild-type (WT) mice C571BI/6 were fed either methionine/choline-sufficient (MCS) chow diet (Trophic Animal Feed High-tech Co., Ltd, China) or MCD diet (Trophic Animal Feed High-tech Co., Ltd, China) for 7 weeks. Animals were randomly divided into eight groups: 1) control, fed a standard control MCS diet and given vehicle (35% polyethylene glycol (PEG) 400:15% Cremophor EL:5% ethanol:45% saline); 2) rats fed a MCD diet and given vehicle; 3) rats fed the MCD diet and orally treated with silybin (300 milligrams per kilogram (mg/kg)); 4) rats fed the MCD diet and orally treated with silybin (150 mg/kg); 5) rats fed the MCD diet and orally treated with tangeretin (150 mg/kg); 6) rats fed the MCD diet and orally treated with 75 mg/kg silybin and 75 mg/kg tangeretin (SB & TG—L); 7) rats fed the MCD diet and orally treated 150 mg/kg silybin and 150 mg/kg tangeretin (SB & TG—M); 8) rats fed the MCD diet and orally treated with 300 mg/kg silybin and […]. Body weight was intermittently monitored during the diet-induction period and every two or three days during the intervention period.
At the end of 8 weeks, mice were sacrificed under ether anesthesia. The following procedures are same as the description under “2.10 Effects of silybin on acute liver damage induced by CCl4 in rats”. The cytokine levels including tumor necrosis factor alpha (TNF-α) (eBioscience Inc, San Diego, Calif., USA), interleukin-6 (IL-6) assay kit (Raybiotech, Norcross, Ga., USA) in serum of NASH model were further measured using commercially available enzyme-linked immunosorbent assay (ELISA) kits.

The nature of data set [2]: in vitro. To be noted: male, Sprague Dawley, rat. In kind it is in vitro ADME, rat. Here is the method:
Sandwich-cultured rat hepatocytes (SCHs) were established according to previously described methods with minor modifications. Primary rat hepatocytes were isolated from male Sprague Dawley® (SD) rats (220-270 g) using a collagenase perfusion as described previously and plated at a density of 7.4×10^5 cells/2 ml/well onto six-well BioCoat plates. Approximately 24 hours later, hepatocytes were overlaid with 2 ml of 0.25 mg/ml BD Matrigel basement membrane matrix in Dulbecco's modified Eagle medium (DMEM) containing 1% volume by volume percentage (v/v) insulin/transferrin/selenium culture supplement, […] dexamethasone, 2 mM L-glutamine, 1% (v/v) minimum essential medium nonessential amino acids, 1% penicillin-streptomycin. Hepatocytes were cultured for 4 days to allow extensive formation of canalicular networks between cells before experimentation and the medium was changed daily.
Sandwich-cultured hepatocytes (SCHs) were pre-incubated in 2 milliliters (ml) of warm Hank's Balanced Salt Solution (HBSS) with or without Ca^2+ at 37° C. for 15 minutes; the tight junctions of the bile canaliculi open temporally after exposure to HBSS without Ca^2+. Subsequently, cells were incubated at 37° C. for 20 minutes with 1.5 ml of standard HBSS containing silybin (10 μM), or MK 571 (50 μM) as a positive control, or baicalein (25, 15.8, 5, 1.58, 0.5, 0.16 μM), or tangeretin (25, 15.8, 5, 1.58, 0.5 μM). After 20 min, cells were washed three times with ice-cold standard HBSS. The cell samples were lysed by sonication in 1 ml of water for 5 seconds with the ultrasonic cell disruption system (SONICS & […], INC., Newtown, Conn., USA). Conjugated silybin and unconjugated (free) silybin were quantified by high-performance liquid chromatography-tandem mass spectrometry (HPLC-MS/MS). Transport function was normalized to the protein content of the hepatocytes which was evaluated by bicinchoninic acid (BCA) protein assay (Pierce Chemical, Rockford, Ill.). The biliary excretion index (BEI; %) and in vitro biliary clearance (Clbiliary; ml/min/kg) were calculated by using B-CLEAR technology (Qualyst, Inc., Research Triangle Park, N.C.) based on the following equations: […]

On to `COc1cc(C2Oc3cc([C@H]4Oc5cc(O)cc(O)c5C(=O)[C@@H]4O)ccc3OC2CO)ccc1O` (stereo partly drawn) [silybin], for which, in data set [1] (mice on MCD diet), the “MCD diet-induced TC and TG increase” value is “clearly inhibited”; the body weight result is reported as “slightly increased”; the “lipid accumulation and inflammatory infiltration in liver (H&E)” value was “decreased”; the liver/body weight ratio result is on record as “moderate decrease”. The “MCD diet-induced elevation of ALT, AST, MDA, SOD, GSH and GSH/GSSG ratio” value in data set [1] (silybin 300 mg/kg, silybin-tangeretin treatment) is listed as “suppressed”. Moreover, the liver/body ratio result in data set [1] (silybin by co-treatment with tangeretin, FIG. 35A) is on record as “significantly decreased”. Further, in data set [1] (silybin by co-treatment with tangeretin, FIG. 35B, 35C), the “body weight and liver weight” value is on record as “did not significantly affect”. The “MCD diet-induced cytokines elevation (IL-1β, TNF-α, IL-6)” value in data set [1] (silybin treatment in the absence or presence of tangeretin) is on record as “suppressed”.
Usually inhibition stands for how much of the control response was suppressed. Low values mean a response near the control, high ones a response far below the control. As for `COc1ccc(-c2cc(=O)c3c(OC)c(OC)c(OC)c(OC)c3o2)cc1` [tangeretin], the inhibition at 20 min in data set [2] was around 90%.
